The record followed here is PMC7613620, “Reaction hijacking of tyrosine tRNA synthetase as a whole-of-life-cycle antimalarial strategy” (Science (New York, N.Y.), 2022).

In assay [1] the target is human Atg7 (Homo sapiens, UniProt O95352). The experiment in a line: E1-E2 transthiolation HTRF assay, ATG7 (RH-GABARAP). The format is biochemical. An excerpt: 592 E1-E2 Transthiolation Assays
593 An Homogeneous Time-Resolved Fluorescence (HTRF) enzyme assay was employed to evaluate
594 compound activity against ATG7 as previously described (11). In this assay, a Flag-tagged ATG8 homolog
595 (GABA type A receptor-associated protein; GABARAP) is activated by ATG7 and then transthiolated to a
596 GST-tagged E2 (ATG3). The product of the enzyme reaction, Flag-GABARAP-ATG3-GST, is quantified
597 by measuring FRET between Europium-Cryptate labelled monoclonal anti-Flag M2 (CisBio International,
598 Cat# 61FG2KLB) and PHYCOLINK goat anti-GST allophycocyanin (Prozyme, PJ252p1). […]
606 Compounds were incubated with mature stage V gametocytes ([…], kind gift from Professor Chris Janse
607 at Leiden University Medical Center (LUMC), the Netherlands) for 48 hours in 384 well plates before
608 gamete formation was triggered by a drop in temperature and addition of xanthurenic acid. […]
611 Multiple data sets using different gametocyte cultures were collected on each of two separate days.
613 Activity against exoerythrocytic stages
614 Primary human hepatocytes (H1500.H15B+ Lot No. HC10-10 Cryopreserved human hepatocytes)
615 were cultured for 2 days and then overlaid with P. falciparum NF54 sporozoites and compounds.
616 Supernatant was refreshed daily with fresh compounds.
A general note: In TR-FRET formats the signal depends on donor and acceptor labels being close together.

In assay [2] the test system is protein translation in P. falciparum (Cam3.II-rev) schizonts. The experiment in a line: Protein translation assay (O-propargyl-puromycin incorporation). The format is cell-based, Plasmodium falciparum. The following applies: Plasmodium falciparum, 3 h, read-out: IC50 (Translation), schizont stage Cam3.II-rev, 3 h exposure, OPP incorporation. As for the experimental part:
723 then fixed for 10 minutes (4% formaldehyde/0.02% glutaraldehyde in PBS). The click reaction was
724 performed for 1 h in the presence of CuSO4 (0.1 mM), THPTA (0.5 mM) and sodium ascorbate (5 mM) to
725 bring about azide-alkyne cycloaddition to Alexa Fluor 488 azide (0.1 µM). Flow cytometry was performed
726 using the FITC and Cy™5.5 channels to detect the Alexa Fluor 488 and PI, respectively.
729 Cam 3.II_Rev (25) trophozoite-infected RBCs (25-30 h p.i.) were incubated with inhibitor for 3 h at 10%
730 hematocrit and 5% parasitemia. The RBC pellet was washed 3 x in PBS + cOmplete. Cells were centrifuged
731 at 380 x g for 5 min and the pelleted cells lysed by resuspension in PBS + 0.05% saponin for 5 min on ice.

Assay [3] deals with P. falciparum (3D7). The experiment in a line: P. falciparum (3D7) culture growth inhibition, 72 h. The format is cell-based, Plasmodium falciparum. The settings on record: for IC50: Plasmodium falciparum. Here is the method: (1 picture or pasted object on this page, not shown here)
553 Sigma-Aldrich) for 48-72 h. For drug pulse assays, tightly synchronized parasites (1-1.5% parasitemia,
554 0.2% final hematocrit) were added to the plates and incubated for 3 h. Drugs were removed and the
555 parasitemia assessed in the trophozoite stage of the next cycle.
557 Compounds were tested against a range of drug resistant field isolates and laboratory strains using a
558 modified [3H]-hypoxanthine incorporation assay, as previously reported (46). Field isolates 7G8, Cam3.1,
559 Dd2, K1, TM90C2B and NF54 were obtained from MR4 (www.beiresources.org).
(§1) 561 Mammalian cell culture experiments
(§2) 562 The HepG2 (Human hepatocyte carcinoma) cell line was procured from ATCC (American Type
(§3) 563 Culture Collection, Manassas, USA; HB-8065) and viability assessed using Cell Titer-GLO luminescent
(§4) 564 cell viability assay reagents (Promega, catalogue number: G7570) (47, 48). For the assay, 2000 cells/well
(§5) 565 were plated in 384-well plates 24 h prior to the experiment and incubated at 37°C in a CO2 incubator. The
(§6) 566 medium was removed and cells were treated with fresh medium containing either vehicle (0.5% DMSO)
(§7) 567 or serially diluted test compounds or doxorubicin (1.3 nM to 25 µM) in a final volume of 50 µl/well and
(§8) 568 further incubated for 72 h at 37°C in a CO2 incubator.
(§9) 569 were treated with 5 µl of 1% Triton X-100 (final assay conc. 0.1%). Following incubation, 25 µl of medium
(§10) 570 was discarded and 25 µl of Cell Titer-GLO reagent was added to each well and the plate was kept on a plate
(§11) 571 shaker for 15 min at 25°C with shaking at 300 rpm. Luminescence signals were measured in a Spectramax
572 M5 reader (Molecular Devices).
574 H1650 is a human lung cancer derived ATG7-null cell line (49) that can be used to assess effects on targets
576 adenocarcinoma; bronchoalveolar carcinoma). Other cells lines used are: H460 (NCI-H460; human lung;
577 carcinoma; large cell lung cancer; ATCC: HTB-177); and HCT116 (human colon; colorectal carcinoma;
578 ATCC: CCL-247; Lot : 5056139). Each of the cell lines was received from the American Type Culture
579 Collection (ATCC) and passaged twice before freezing. Cells were cultured in the presence or absence of
580 inhibitors and cell viability was assessed by comparing the ATP content in compound-treated wells with
581 that in DMSO-treated wells as previously described (11).
583 HeLa cells (human cervical adenocarcinoma; genome sequenced (Garvin Institute, Australia) and verified

In assay [4] the test system is HepG2. The experiment in a line: HepG2 Cell Titer-GLO luminescent cell viability assay. The assay is classed as cell-based. The following applies: Homo sapiens, HepG2, 72 h, read-out: HepG2 (luminescence) IC50(72h). As for the experimental part: as §1, §2, §3, §4, §5, §6, §7, §8, §9, §10, §11
572 M5 reader (Molecular Devices). […]
585 37°C humidified incubator as adherent semi-confluent monolayers in complete Dulbecco’s Modified Eagle
586 Media (c-DMEM). DMEM (Gibco™, Thermo Fisher Scientific, Australia) was supplemented with 10%
(In general: In ATP-based viability assays light output follows the ATP content of the culture.)

Where two headings read alike, the source gives them in different places.

human Atg7, sequence (O95352 whole entry): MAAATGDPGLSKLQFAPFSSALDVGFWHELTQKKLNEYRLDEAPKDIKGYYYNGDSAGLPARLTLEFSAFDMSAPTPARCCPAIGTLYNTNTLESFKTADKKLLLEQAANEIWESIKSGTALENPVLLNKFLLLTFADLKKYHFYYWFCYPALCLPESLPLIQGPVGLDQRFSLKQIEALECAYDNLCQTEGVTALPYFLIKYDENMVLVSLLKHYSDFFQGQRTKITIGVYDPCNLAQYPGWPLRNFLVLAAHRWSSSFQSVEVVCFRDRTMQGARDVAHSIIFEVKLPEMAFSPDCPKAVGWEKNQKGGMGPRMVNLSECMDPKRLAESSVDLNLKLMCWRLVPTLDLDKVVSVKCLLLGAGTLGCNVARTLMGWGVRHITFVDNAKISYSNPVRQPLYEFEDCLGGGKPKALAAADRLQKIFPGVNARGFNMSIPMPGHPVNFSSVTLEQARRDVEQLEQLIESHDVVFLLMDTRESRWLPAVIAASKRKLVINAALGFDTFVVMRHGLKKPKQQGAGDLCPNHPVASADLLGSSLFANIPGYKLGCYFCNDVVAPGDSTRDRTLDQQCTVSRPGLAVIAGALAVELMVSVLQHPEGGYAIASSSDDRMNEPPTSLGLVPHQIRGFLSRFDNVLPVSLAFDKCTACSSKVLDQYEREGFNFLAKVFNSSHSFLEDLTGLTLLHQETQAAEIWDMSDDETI

Take `Nc1ncnc2c1c(OC(F)F)nn2[C@@H]1O[C@H](COS(N)(=O)=O)[C@@H](O)[C@H]1O` [ML901]: the IC50 in assay [1] came to 33 nM; in assay [2] it was 65 nM; in assay [3] (read-out: Pf3D7 IC50(72h), P. falciparum 3D7, 72 h), 2 ± 0.1 nM; in assay [3] (3D7 parent of the in vitro evolution experiment, 72 h, read-out: IC50 (3D7)), 1.9 ± 0.1 nM; in assay [4] it was 1630 nM. Besides, the “higher selectivity than AMS” value in assay [3] (P. falciparum versus mammalian cell lines, compared with AMS) is > 1,000 fold. For the same compound, the “selectivity towards P. falciparum” value in assay [3] (versus different mammalian cell lines) is given as 800- to 5,000 fold.
